For 23 compounds, TGI results are on record in PubChem BioAssay (NCI).

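Compound exposure: 48 hours, 5 concentrations, 96-well plates. TGI marks complete inhibition of growth.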

One assay has as its system HT29 colon. The assay is described as follows: NCI anticancer screen, dose series, 48 h.
Compound `Oc1cc2c3c(c1)c1cc4c(cc1c[n+]3CC2)OCO4` gave a TGI of over 42.2 µM.

Take `O=C(O)c1cccc2c1/C(=N/Nc1ccccc1)CC2`: the TGI is over 100 µM.

`O=c1[nH][nH]c(=O)n1Cc1ccccc1Cn1c(=O)[nH][nH]c1=O` registered a TGI of over 100 µM.

In turn, `c1ccc(N=C2SC3=Nc4cccc5cccc(c45)N3C2=Nc2ccccc2)cc1` came in with a TGI of over 100 µM.

In the case of `CN1CCN([C@H]2C[C@H]3[C@@H]4CC=C5C[C@@H](O)CC[C@]5(C)[C@H]4CC[C@]3(C)C2=O)CC1`, the TGI is over 100 µM.

In the case of `C=C(C1=CC(=O)C(C)(C)O1)[C@@H]1CC=C([C@@H]2CC[C@H]3[C@@]2(C)CC[C@H]2C(C)(C)C(=O)[C@H](O)C[C@]32C)[C@H](O)O1`, the TGI is 3.48 µM.

Consider `CCNC(=S)N/N=C/c1cc([N+](=O)[O-])ccc1O`, for which the TGI is over 100 µM.

`Oc1cccc2c(Cl)ccnc12` showed a TGI of 33.6 µM.

Compound `COc1cc([C@@H]2c3cc4c(cc3[C@@H](Nc3ccc([N+](=O)[O-])cc3C(=O)c3ccccc3)[C@H]3COC(=O)[C@H]23)OCO4)cc(OC)c1OC` displayed a TGI of over 100 µM.

With `Oc1ccc(-c2nc(-c3cccnc3)c(-c3ccc(F)cc3)[nH]2)cc1`, the TGI came to 32.5 µM.

Compound `CCC1(O)CC2CC(=O)OC2C1O` (stereo unspecified) came in with a TGI of over 100 µM.

The compound `CCOC(=O)Nn1c(C)nnc1-c1ccccc1` showed a TGI of over 100 µM.

For `Cc1cn(C2CC(N(O)C(N)=O)C(CO)O2)c(=O)[nH]c1=O` (stereo unspecified), the TGI is over 100 µM.

For `O=[N+]([O-])/C(C(Cl)=C(Cl)Cl)=C(\SCc1ccccc1)N1CCCCC1`, the TGI was 82.4 µM.

`COC(=O)[C@H]1CO[C@@H](C(C)(C)C)N1C(=O)N1C=CC(=O)C[C@@H]1C` came in with a TGI of over 100 µM.

In the case of `COc1ccc2c(=O)c(O)c(-c3ccc(OC)c(OC)c3)oc2c1`, the TGI is over 100 µM.

`O=S1(=O)NC(=NCc2c[nH]c3ccccc23)N(c2ccccc2)c2ccncc21` registered a TGI of over 100 µM.

For `CC[C@@]1(O)C(=O)OCc2c1cc1n(c2=O)Cc2c-1nc1ccccc1c2/C=N\NC(=O)CN`, the TGI was over 49.7 µM.

Compound `Cc1ccsc1/C=N/Nc1ncccn1` registered a TGI of over 100 µM.

`CCc1ccc(CCN2CCCCC2)nc1` had a TGI of over 100 µM.

With `COC(=O)c1cc2c(n1S(=O)(=O)c1ccc(C)cc1)C(=O)C(=O)c1[nH]cc(C(=O)OCc3ccccc3)c1-2`, the TGI came to 1.15 µM.

The compound `COc1ccc(C2c3cc4c(cc3OC(NNS(=O)(=O)c3ccc(C)cc3)C2C)OCO4)cc1` (stereo unspecified) came in with a TGI of over 100 µM.

`COC(=O)[C@H](Cc1c[nH]c2ccccc12)NP(=O)(O)OCC1C=CC(n2cc(C)c(=O)[nH]c2=O)O1` (stereo partly specified) yielded a TGI of over 100 µM.

A further assay relates to HL-60(TB) leukemia. As to the kind of experiment: NCI anticancer screen, dose series, 48 h.
Compound `Oc1cc2c3c(c1)c1cc4c(cc1c[n+]3CC2)OCO4` yielded a TGI of over 27.3 µM.

Compound `O=c1[nH][nH]c(=O)n1Cc1ccccc1Cn1c(=O)[nH][nH]c1=O` showed a TGI of over 100 µM.

`c1ccc(N=C2SC3=Nc4cccc5cccc(c45)N3C2=Nc2ccccc2)cc1` registered a TGI of over 100 µM.

Consider `CN1CCN([C@H]2C[C@H]3[C@@H]4CC=C5C[C@@H](O)CC[C@]5(C)[C@H]4CC[C@]3(C)C2=O)CC1`, for which the TGI was over 100 µM.

With `C=C(C1=CC(=O)C(C)(C)O1)[C@@H]1CC=C([C@@H]2CC[C@H]3[C@@]2(C)CC[C@H]2C(C)(C)C(=O)[C@H](O)C[C@]32C)[C@H](O)O1`, the TGI worked out at 8.11 µM.

On to `CCNC(=S)N/N=C/c1cc([N+](=O)[O-])ccc1O`, for which the TGI was found to be 40.8 µM.

For the compound `Oc1cccc2c(Cl)ccnc12`, the TGI is 3.36 µM.

`Oc1ccc(-c2nc(-c3cccnc3)c(-c3ccc(F)cc3)[nH]2)cc1`: the TGI was determined as 52 µM.

Consider `O=[N+]([O-])/C(C(Cl)=C(Cl)Cl)=C(\SCc1ccccc1)N1CCCCC1`, for which the TGI worked out at 29.6 µM.

Compound `COC(=O)[C@H]1CO[C@@H](C(C)(C)C)N1C(=O)N1C=CC(=O)C[C@@H]1C` had a TGI of over 100 µM.

In turn, `COc1ccc2c(=O)c(O)c(-c3ccc(OC)c(OC)c3)oc2c1` returned a TGI of 5.22 µM.

For the compound `O=S1(=O)NC(=NCc2c[nH]c3ccccc23)N(c2ccccc2)c2ccncc21`, the TGI was over 100 µM.

Take `CC[C@@]1(O)C(=O)OCc2c1cc1n(c2=O)Cc2c-1nc1ccccc1c2/C=N\NC(=O)CN`: the TGI was over 100 µM.

Compound `Cc1ccsc1/C=N/Nc1ncccn1` gave a TGI of over 100 µM.

The compound `COc1ccc(C2c3cc4c(cc3OC(NNS(=O)(=O)c3ccc(C)cc3)C2C)OCO4)cc1` (stereo unspecified) gave a TGI of 84.7 µM.

The compound `COC(=O)[C@H](Cc1c[nH]c2ccccc12)NP(=O)(O)OCC1C=CC(n2cc(C)c(=O)[nH]c2=O)O1` (stereo partly specified) yielded a TGI of over 100 µM.

A further assay concerns SN12C renal. The assay is described as follows: NCI anticancer screen, dose series, 48 h.
With `Oc1cc2c3c(c1)c1cc4c(cc1c[n+]3CC2)OCO4`, the TGI was found to be 5.71 µM.

`O=c1[nH][nH]c(=O)n1Cc1ccccc1Cn1c(=O)[nH][nH]c1=O` yielded a TGI of over 100 µM.

Compound `c1ccc(N=C2SC3=Nc4cccc5cccc(c45)N3C2=Nc2ccccc2)cc1` displayed a TGI of over 100 µM.

The compound `CN1CCN([C@H]2C[C@H]3[C@@H]4CC=C5C[C@@H](O)CC[C@]5(C)[C@H]4CC[C@]3(C)C2=O)CC1` registered a TGI of over 100 µM.

As for `C=C(C1=CC(=O)C(C)(C)O1)[C@@H]1CC=C([C@@H]2CC[C@H]3[C@@]2(C)CC[C@H]2C(C)(C)C(=O)[C@H](O)C[C@]32C)[C@H](O)O1`, the TGI was determined as 5.18 µM.

`CCNC(=S)N/N=C/c1cc([N+](=O)[O-])ccc1O` displayed a TGI of over 100 µM.

In turn, `Oc1cccc2c(Cl)ccnc12` displayed a TGI of over 55.2 µM.

In the case of `COc1cc([C@@H]2c3cc4c(cc3[C@@H](Nc3ccc([N+](=O)[O-])cc3C(=O)c3ccccc3)[C@H]3COC(=O)[C@H]23)OCO4)cc(OC)c1OC`, the TGI is over 100 µM.

Take `Oc1ccc(-c2nc(-c3cccnc3)c(-c3ccc(F)cc3)[nH]2)cc1`: the TGI was found to be 54.6 µM.

In the case of `CCOC(=O)Nn1c(C)nnc1-c1ccccc1`, the TGI was over 100 µM.

The compound `Cc1cn(C2CC(N(O)C(N)=O)C(CO)O2)c(=O)[nH]c1=O` (stereo unspecified) returned a TGI of over 100 µM.

With `O=[N+]([O-])/C(C(Cl)=C(Cl)Cl)=C(\SCc1ccccc1)N1CCCCC1`, the TGI was determined as 47.6 µM.

Compound `COC(=O)[C@H]1CO[C@@H](C(C)(C)C)N1C(=O)N1C=CC(=O)C[C@@H]1C` came in with a TGI of over 100 µM.

Turning to `O=S1(=O)NC(=NCc2c[nH]c3ccccc23)N(c2ccccc2)c2ccncc21`, the TGI is over 100 µM.

Compound `CC[C@@]1(O)C(=O)OCc2c1cc1n(c2=O)Cc2c-1nc1ccccc1c2/C=N\NC(=O)CN` showed a TGI of over 100 µM.

In turn, `Cc1ccsc1/C=N/Nc1ncccn1` had a TGI of over 100 µM.

`CCc1ccc(CCN2CCCCC2)nc1` yielded a TGI of over 100 µM.

`COC(=O)c1cc2c(n1S(=O)(=O)c1ccc(C)cc1)C(=O)C(=O)c1[nH]cc(C(=O)OCc3ccccc3)c1-2` displayed a TGI of 0.241 µM.

`COc1ccc(C2c3cc4c(cc3OC(NNS(=O)(=O)c3ccc(C)cc3)C2C)OCO4)cc1` (stereo unspecified): the TGI is over 100 µM.

For the compound `COC(=O)[C@H](Cc1c[nH]c2ccccc12)NP(=O)(O)OCC1C=CC(n2cc(C)c(=O)[nH]c2=O)O1` (stereo partly specified), the TGI was over 100 µM.

Another assay deals with DU-145 prostate. As to the kind of experiment: NCI anticancer screen, dose series, 48 h.
Regarding `Oc1cc2c3c(c1)c1cc4c(cc1c[n+]3CC2)OCO4`, the TGI is over 42.9 µM.

`O=C(O)c1cccc2c1/C(=N/Nc1ccccc1)CC2` came in with a TGI of over 100 µM.

`O=c1[nH][nH]c(=O)n1Cc1ccccc1Cn1c(=O)[nH][nH]c1=O` had a TGI of over 100 µM.

In turn, `c1ccc(N=C2SC3=Nc4cccc5cccc(c45)N3C2=Nc2ccccc2)cc1` returned a TGI of over 100 µM.

Compound `C=C(C1=CC(=O)C(C)(C)O1)[C@@H]1CC=C([C@@H]2CC[C@H]3[C@@]2(C)CC[C@H]2C(C)(C)C(=O)[C@H](O)C[C@]32C)[C@H](O)O1` displayed a TGI of 2.91 µM.

For the compound `CCNC(=S)N/N=C/c1cc([N+](=O)[O-])ccc1O`, the TGI is over 100 µM.

In turn, `Oc1cccc2c(Cl)ccnc12` had a TGI of over 100 µM.
